System: Old mice
Assay: Wire hang test
Type: in vivo, mouse
Conditions: creatine 120 mg/kg
Method: The test was performing using a wire having a diameter of 2 mm installed at a height of 25 cm. Each mouse was placed on the wire using only the front legs, and the time of hanging without falling was measured. The time when the mouse was suspended and then dropped was measured and the test was conducted for a maximum of 120 seconds. In this way, each mouse was repeated 3 times at approximately 20 minute intervals. The results of each mouse were analyzed for the average value of the first and longest hanging time in three trials. […] In addition, creatine 120 mg/kg (creatine-120) was administered to mice as a positive control, and the test was conducted under the same conditions.

CN(CC(=O)O)C(=N)N [creatine]
wire hang effect of positive control vs aging mouse group: more effective than the aging mouse group
